Holding throughout (assay type): physicochemical
Series [1] is described as follows: Solvent solubility screen for Compound 1. Conditions: thermodynamic from solid, crystalline Compound 1 (Form 1), read-out: Approximate Solubility. The method, then: Ca. 10 mg of crystalline Compound 1 was placed in 32 vials and 5 volume aliquots of the appropriate solvent systems were added to the appropriate vial. Between each addition, the mixture was checked for dissolution and if no dissolution was apparent, the mixture was heated to ca. 40° C. and checked again. This procedure was continued until dissolution was observed or until 100 volumes of solvent had been added. After the addition of 100 volumes, a further 100 volumes were added to samples which had not dissolved to give a total of 200 volumes. If 200 volumes were added without dissolution, the solubility was calculated to be below this point (<5 mg/mL).

Series [2] in a line: 7-day stability testing. The method, then:
Form 2 of Compound 2 was scaled up in two solvents. Material underwent 7-day stability testing and/or aqueous solubility assessment. The 7-day stability testing was conducted as follows. Material was exposed to environments of 40° C./75% RH, ambient light and 80° C. for 7 days and the resulting solids analysed by XRPD to determine if any changes had occurred, and by HPLC to determine purity. The aqueous solubility assessment was conducted as follows. A slurry was created in deionised water (5.1 mg of Form 2 and 300 μL of water) and shaken for ca. 24 hours at ambient temperature (ca. 22° C.). The initial pH and final pH were measured. The resulting mixture was then isolated by centrifuge filtration, and the solution obtained analysed by HPLC to calculate the concentration of material dissolved. Remaining solid was analysed by XRPD to determine if any changes had occurred on slurrying.

Series [3] can be described thus: Gravimetric vapor sorption (GVS). As to conditions: for hygroscopic nature / weight uptake: GVS; for Post-GVS analysis by XRPD (form change): after GVS sorption/desorption cycle. The method, then:
Approximately 10 mg of sample was placed into a mesh vapour sorption balance pan and loaded into an IGASorp Moisture Sorption Analyser balance by Hiden Analytical. The sample was subjected to a ramping profile from 40-90% relative humidity (RH) at 10% increments, maintaining the sample at each step until a stable weight had been achieved (98% step completion). After completion of the sorption cycle, the sample was dried using the same procedure to 0% RH, and finally taken back to the starting point of 40% RH. The weight change during the sorption/desorption cycles were plotted, allowing for the hygroscopic nature of the sample to be determined.

Series [4] can be described thus: Compound 6 polymorph screen. Conditions: among the three Compound 6 polymorphs. From the text: In a Compound 6 polymorph screen, two additional Compound 6 crystalline forms were identified. Compound 6, Form 2, was isolated from a 95/5 acetone/water slurry and Compound 6, Form 3, was isolated from in a 80/20 dioxane/water mixture.
The mark [5] stands for this setting: ambient light / ambient conditions for 7 days.

Values after ≈ are worked out from the molar mass of the structure shown. Structures can show the parent of a compound that is named as a salt. Where two headings read alike, the source gives them in different places. Some results are limits rather than exact numbers.

Usually solubility stands for the dissolved amount per volume that the medium holds.

With `O=C(OC(C(F)(F)F)C(F)(F)F)N1CCN(Cc2ccc(C(F)(F)F)cc2N2CCCC2)CC1` [Compound 1, 1,1,1,3,3,3-hexafluoropropan-2-yl 4-(2-(pyrrolidin-1-yl)-4-(trifluoromethyl)benzyl)piperazine-1-carboxylate], the solubility in series [1] (aqueous with cosolvent or surfactant or cyclodextrin, 2-Propanol:water (50%)) is less than 5 mg/mL; in series [1] (aqueous with cosolvent or surfactant or cyclodextrin, Acetone:water (50%), precipitated after ca. 30 minutes), more than 202 mg/mL; in series [1] (aqueous with cosolvent or surfactant or cyclodextrin, Methanol:water (50%)), less than 5 mg/mL; in series [1] (organic solvent or mixture, 1,4-Dioxane) it was more than 206 mg/mL; in series [1] (organic solvent or mixture, 1-Butanol), 39 mg/mL (≈ 76.9 mM); in series [1] (organic solvent or mixture, 2-Ethoxyethanol) it was 103 mg/mL (≈ 203 mM). For the same compound, the solubility is more than 200 mg/mL in series [1] (organic solvent or mixture, 2-Methyl tetrahydrofuran); 69 mg/mL (≈ 136 mM) in series [1] (organic solvent or mixture, 2-Propanol, precipitated after ca. 2 days); more than 202 mg/mL in series [1] (organic solvent or mixture, Acetone); more than 196 mg/mL in series [1] (organic solvent or mixture, Acetonitrile); more than 200 mg/mL in series [1] (organic solvent or mixture, Anisole); more than 214 mg/mL in series [1] (organic solvent or mixture, Benzonitrile). For the same compound, the solubility was 69 mg/mL (≈ 136 mM) in series [1] (organic solvent or mixture, Chlorobenzene); more than 198 mg/mL in series [1] (organic solvent or mixture, Dichloromethane); more than 208 mg/mL in series [1] (organic solvent or mixture, Diisopropyl Ether); more than 204 mg/mL in series [1] (organic solvent or mixture, Dimethylacetamide); more than 204 mg/mL in series [1] (organic solvent or mixture, Dimethylformamide); 50 mg/mL (≈ 98.5 mM) in series [1] (organic solvent or mixture, Dimethylsulfoxide). The solubility in series [1] (organic solvent or mixture, Ethanol) is 67 mg/mL (≈ 132 mM); in series [1] (organic solvent or mixture, Ethyl acetate), more than 198 mg/mL; in series [1] (organic solvent or mixture, Heptane) it was 49 mg/mL (≈ 96.6 mM); in series [1] (organic solvent or mixture, Hexane) it was 49 mg/mL (≈ 96.6 mM); in series [1] (organic solvent or mixture, Isopropyl acetate), more than 198 mg/mL; in series [1] (organic solvent or mixture, Methanol), 72 mg/mL (≈ 142 mM). The solubility is more than 196 mg/mL in series [1] (organic solvent or mixture, Methyl isobutyl ketone); more than 202 mg/mL in series [1] (organic solvent or mixture, Methylethyl ketone); more than 198 mg/mL in series [1] (organic solvent or mixture, N-Methyl-2-pyrrolidone); more than 198 mg/mL in series [1] (organic solvent or mixture, Tetrahydrofuran); more than 202 mg/mL in series [1] (organic solvent or mixture, Toluene); 69 mg/mL (≈ 136 mM) in series [1] (organic solvent or mixture, tert-Amyl alcohol). Moreover, the solubility in series [1] (organic solvent or mixture, tert-Butylmethyl ether) is more than 196 mg/mL; in series [1] (Water) it was less than 5 mg/mL.

On to `CS(=O)(=O)O.O=C(OC(C(F)(F)F)C(F)(F)F)N1CCN(Cc2ccc(C(F)(F)F)cc2N2CCCC2)CC1` [Compound 5, 1,1,1,3,3,3-hexafluoropropan-2-yl 4-(2-(pyrrolidin-1-yl)-4-(trifluoromethyl)benzyl)piperazine-1-carboxylate mesylate salt], for which the figures for the “HPLC purity after stability testing” value in series [2] (40° C./75% RH for 7 days), in series [2] (80° C. for 7 days) and in series [2] (setting [5]) were 99.98%, 99.97% and 99.95%, respectively. In series [3], the hygroscopic nature result is “moderately hygroscopic”. The weight uptake in series [3] (at 90% RH) came to 3.5%; in series [3] (up to 70% humidity) it was 2.8%. For the same compound, in series [3], the “Post-GVS analysis by XRPD (form change)” value was “maintained its form and crystallinity”.

For `O=C(OC(C(F)(F)F)C(F)(F)F)N1CCN(Cc2ccc(C(F)(F)F)cc2N2CCCC2)CC1` [Compound 6, 1,1,1,3,3,3-hexafluoropropan-2-yl 4-(2-(pyrrolidin-1-yl)-4-(trifluoromethyl)benzyl)piperazine-1-carboxylate fumarate salt], in series [4], the “relative thermodynamic stability of polymorphs” value was “thermodynamically most stable form”. The “HPLC purity after stability testing” value in series [2] (40° C./75% RH for 7 days), in series [2] (80° C. for 7 days) and in series [2] (setting [5]) was 99.9% in each case.

As to `Cl.Cl.O=C(OC(C(F)(F)F)C(F)(F)F)N1CCN(Cc2ccc(C(F)(F)F)cc2N2CCCC2)CC1` [Compound 3, 1,1,1,3,3,3-hexafluoropropan-2-yl 4-(2-(pyrrolidin-1-yl)-4-(trifluoromethyl)benzyl)piperazine-1-carboxylate bis-HCl salt], in series [3], the hygroscopic nature result is reported as “slightly hygroscopic” and the “Post-GVS analysis by XRPD (form change)” value was “remain unchanged”. In series [3] (at 90% RH), this compound displayed a weight uptake of 1.4%.

Values taken from patent US11993588B2, “Crystalline forms of a MAGL inhibitor” (H. Lundbeck A/S, priority 2016, dated 2024).
